Laboratory results taken from patent US10583129B2, “Use of EP4 receptor antagonists for the treatment of NASH-associated liver cancer” (AskAt Inc., priority 2016, dated 2020).

What was measured:
[1] = test system: immune cells obtained from mouse livers; conditions: liver, 30 mg/kg QD, vs vehicle
Experimental: FIG. 5A depicts flow cytometry analysis of immune cells between vehicle-treated mice or Compound A-treated mice. The percentages of total CD11c^hi MHC class II (MHC II)^hi, CD11b^+ CD11c^hi MHC II^hi, or CD103^+ CD11c^hiMHC II^hi cells were analyzed by flow cytometry. Data are represented as means±SEM.
FIG. 6A depicts the percentages of CD3^+ CD4^+ Foxp3^+, CD3^+ CD4^+ Foxp3^−, CD3^+ CD8^+ cells analyzed by flow cytometry. The ratio of CD8^+ T cells to CD4^+ Foxp3^+ Tregs was calculated. Data are represented as means±SEM. NS=not significant, *p<0.05, **p<0.01.
In FIG. 7A, the percentages of CD69^+ CD8^+ cells were analyzed by flow cytometry (*p<0.05, **p<0.01).
In FIG. 8A, the percentages of PD-1^+ CD8^+ cells were analyzed by flow cytometry (*p<0.05, **p<0.01).
Immune cells were obtained from mouse livers and were subjected to measuring cytokine production and flow cytometric analysis.
Data were analyzed by unpaired t-test with Welch correction (two-side) or Man-Whitney test (two-side). P values less than 0.05 were considered significant. “NS” indicates not significant.
The impact of EP4 blockage on the prevalence and activation status of immune cells was assessed.

[2] = test system: obesity-induced NASH-associated mouse liver cancer model; assay: DMBA plus high fat diet-induced NASH-associated mouse liver cancer model: tumor development and body weight; format: in vivo
Experimental: FIG. 1 depicts a mouse model timeline developed by treating with 7,12-dimethylbenz(a)anthracene (“DMBA”), and by feeding with a high fat diet (HFD). Compound A was administered to the mice every day from 19 weeks of age to 30 weeks of age and then euthanized (“Eut”).
FIG. 2 is macroscopic photographs of the liver isolated from the vehicle-treated mice (left side) and Compound A-treated mice (right side). […] Compound A or a vehicle (n=5, each) were treated to the mice every day from 19 weeks of age to 30 weeks of age. Arrowheads identify hepatocellular carcinomas (HCCs).
FIG. 3 depicts the average liver tumor numbers and the relative size distribution (classified as >6 mm, 2-6 mm, 2 mm). “NS” means not significant.
FIG. 4 depicts the average body weight of the vehicle-treated group and Compound A-treated group at the age of 30 weeks. Data are represented as means±SD.
C57/BL6 mice were purchased from CLEA Japan Inc. The TIr2^−/− mice (C57/BL6) were purchased from Oriental Yeast Co. Ltd.
Hematoxylin and eosin staining and immunofluorescence analysis were performed as previously described (Yoshimoto et al., Nature, 2013, 499:97-101).
P values less than 0.05 were considered significant. “NS” indicates not significant.
This mouse model was developed by treating with DMBA, 7,12-dimethylbenz(a)anthracene, and by feeding a high fat diet (HFD) (Ootani 2013). […] In this experiment, Compound A 30 mg/kg QD was administered to the mice every day from 19 weeks of age to 30 weeks of age (FIG. 1). As a control, a separate group of mice were treated only with a vehicle and no active ingredient.

C[C@H](NC(=O)c1cc(Cl)cnc1Oc1cccc(F)c1)c1ccc(C(=O)O)cc1 [Compound A, 4-[(1S)-1-({[5-chloro-2-(3-fluorophenoxy)pyridin-3-yl]carbonyl}amino)ethyl]-benzoic acid] was tested, and the “frequency of CD11b+ DCs” value ([1]; FIG. 5A/5B) was “not changed”, the “frequency of CD11chi MHC class IIhi dendritic cells (DCs)” value ([1]; FIG. 5A/5B) was “not changed” and the “population of CD103+ DCs” value ([1]; FIG. 5A/5B) was “increased”. For the same compound, the “frequency of CD8+ T cells” value ([1]; FIG. 6A) was “not changed”, the “ratio of CD8+ T cells to Tregs” value ([1]; FIG. 6A) was “increased” and the “frequency of CD4+Foxp3+ regulatory T cells (Tregs)” value ([1]; FIG. 6A/6B) was “significantly reduced”. For the same compound, the “frequency of CD4+Foxp3- T cells” value ([1]; FIG. 6A/6B) was “but not CD4^+Foxp3^− T cells, was significantly reduced”, the “number of CD8+ T cells expressing the activation marker CD69” value ([1]; FIG. 7A/7B) was “significantly increased” and the “number of CD8+ T cells expressing programmed cell death-1 (PD-1)” value ([1]; FIG. 8A/8B) was “significantly reduced”. For the same compound, the body weight ([2]; 30 mg/kg QD, at the age of 30 weeks, FIG. 4) was “did not influence body weight”, the “Hepatocellular carcinoma (HCC) development” value ([2]; Compound A 30 mg/kg QD from 19 to 30 weeks of age, compared to vehicle-treated mice) was “strongly reduced” and the “Tumor colony sized more than 6 mm” value ([2]; after daily therapy from 19 to 30 weeks of age, FIG. 3) was “completely disappeared”. The “tumor number in the liver” value ([2]; treated daily from 19 to 30 weeks of age, compared to vehicle-treated mice, FIG. 3) was “significantly inhibited”.
